{"source": "ChEMBL document CHEMBL1201862", "about": "“PubChem BioAssay data set” (2004)", "key": {"[1]": {"target": "T1, Tyrosine-protein phosphatase non-receptor type 22 (Homo sapiens, UniProt Q9Y2R2)", "T1 sequence (Q9Y2R2 whole entry)": "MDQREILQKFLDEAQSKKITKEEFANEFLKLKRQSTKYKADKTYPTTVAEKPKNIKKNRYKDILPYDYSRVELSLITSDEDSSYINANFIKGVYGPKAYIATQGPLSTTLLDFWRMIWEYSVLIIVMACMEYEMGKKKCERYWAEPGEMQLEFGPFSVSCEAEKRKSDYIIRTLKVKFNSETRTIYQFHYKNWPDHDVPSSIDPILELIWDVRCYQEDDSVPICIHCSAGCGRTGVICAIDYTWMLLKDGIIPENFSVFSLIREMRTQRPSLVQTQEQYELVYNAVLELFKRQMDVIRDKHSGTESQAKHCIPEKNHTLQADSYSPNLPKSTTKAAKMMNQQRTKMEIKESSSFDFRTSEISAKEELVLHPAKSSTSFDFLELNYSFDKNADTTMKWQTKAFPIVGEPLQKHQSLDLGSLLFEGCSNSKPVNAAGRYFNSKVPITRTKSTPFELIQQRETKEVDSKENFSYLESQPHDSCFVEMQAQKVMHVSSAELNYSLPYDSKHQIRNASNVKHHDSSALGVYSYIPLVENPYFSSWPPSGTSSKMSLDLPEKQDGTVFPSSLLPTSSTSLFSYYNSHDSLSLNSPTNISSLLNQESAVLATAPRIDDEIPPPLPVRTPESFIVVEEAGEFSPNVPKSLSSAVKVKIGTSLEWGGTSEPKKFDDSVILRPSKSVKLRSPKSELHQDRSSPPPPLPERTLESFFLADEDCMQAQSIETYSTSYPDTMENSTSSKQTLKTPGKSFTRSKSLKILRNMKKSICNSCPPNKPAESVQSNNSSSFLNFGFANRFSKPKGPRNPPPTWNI", "test": "SAR LYP1 Fluorescent Assay using OMFP substrate for In Vitro dose response studies - Set 2. [Related pubchem assays (depositor defined):AID1779, AID1784, AID2140, AID449726, AID488869]", "format": "functional"}, "[2]": {"target": "T1, Tyrosine-protein phosphatase non-receptor type 22", "test": "PubChem AID 2135"}, "[3]": {"target": "T1, Tyrosine-protein phosphatase non-receptor type 22", "test": "PubChem AID 2140"}, "[4]": {"target": "T1, Tyrosine-protein phosphatase non-receptor type 22", "test": "SAR LYP1 Fluorescent Assay using OMFP substrate for In Vitro dose response studies - Set 3. [Related pubchem assays (depositor defined):AID1779, AID1784, AID2140, AID2686]", "format": "functional"}, "[5]": {"target": "Tyrosine-protein phosphatase non-receptor type 12 (Homo sapiens, UniProt Q05209)", "sequence (Q05209 whole entry)": "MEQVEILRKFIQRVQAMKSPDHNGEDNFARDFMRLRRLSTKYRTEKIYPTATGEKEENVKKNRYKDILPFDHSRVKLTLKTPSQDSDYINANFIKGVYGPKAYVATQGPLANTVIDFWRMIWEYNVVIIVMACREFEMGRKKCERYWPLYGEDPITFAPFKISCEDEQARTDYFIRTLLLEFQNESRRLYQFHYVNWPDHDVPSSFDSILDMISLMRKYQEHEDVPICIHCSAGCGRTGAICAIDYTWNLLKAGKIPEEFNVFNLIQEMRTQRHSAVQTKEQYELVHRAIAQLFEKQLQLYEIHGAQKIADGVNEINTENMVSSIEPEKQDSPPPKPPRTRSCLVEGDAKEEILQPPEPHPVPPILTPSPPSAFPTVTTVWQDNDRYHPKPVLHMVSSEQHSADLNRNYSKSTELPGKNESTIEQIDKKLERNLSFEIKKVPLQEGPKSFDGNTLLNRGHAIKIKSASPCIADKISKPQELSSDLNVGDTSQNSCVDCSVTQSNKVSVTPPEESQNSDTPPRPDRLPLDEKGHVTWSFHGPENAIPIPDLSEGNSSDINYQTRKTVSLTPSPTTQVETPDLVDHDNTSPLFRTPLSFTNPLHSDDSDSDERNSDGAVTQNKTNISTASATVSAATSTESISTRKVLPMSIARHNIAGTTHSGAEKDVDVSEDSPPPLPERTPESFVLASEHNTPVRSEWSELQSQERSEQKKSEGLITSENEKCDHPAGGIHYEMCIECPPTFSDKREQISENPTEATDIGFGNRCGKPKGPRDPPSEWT", "test": "SAR Selectivity Analysis of small molecule inhibitors of PEST using pCAP in a fluorescence assay. [Related pubchem assays (depositor defined):AID1779, AID1784, AID2135]", "format": "functional"}, "[6]": {"target": "T1, Tyrosine-protein phosphatase non-receptor type 22", "test": "inhibition of lymphoid tyrosine phosphatase LYP – biochemical, pCAP fluorogenic substrate, fluorescence, set 3, SAR follow-up (AID 449727)", "format": "functional"}, "[7]": {"target": "T1, Tyrosine-protein phosphatase non-receptor type 22", "test": "SAR LYP1 Fluorescent Assay using pCAP substrate for In Vitro dose response studies - Set 2. [Related pubchem assays (depositor defined):AID1779, AID1784, AID2135, AID449727]", "format": "functional"}, "[8]": {"target": "T2, Tyrosine-protein phosphatase non-receptor type 7 (Homo sapiens, UniProt P35236)", "T2 sequence (P35236 whole entry)": "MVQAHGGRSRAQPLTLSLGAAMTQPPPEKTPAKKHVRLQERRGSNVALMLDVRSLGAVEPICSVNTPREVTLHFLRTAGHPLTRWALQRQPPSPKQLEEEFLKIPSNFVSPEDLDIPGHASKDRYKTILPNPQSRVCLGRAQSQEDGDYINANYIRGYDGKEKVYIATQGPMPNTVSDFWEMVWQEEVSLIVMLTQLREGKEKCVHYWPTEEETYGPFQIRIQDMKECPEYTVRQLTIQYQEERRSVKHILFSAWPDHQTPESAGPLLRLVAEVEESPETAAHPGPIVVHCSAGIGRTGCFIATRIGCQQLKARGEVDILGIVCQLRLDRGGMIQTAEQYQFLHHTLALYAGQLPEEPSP", "test": "inhibition of hematopoietic tyrosine phosphatase HePTP – biochemical, set 2, SAR follow-up (AID 449736)", "format": "functional"}, "[9]": {"target": "T3, E3 ubiquitin-protein ligase XIAP (Homo sapiens, UniProt P98170)", "T3 sequence (P98170 whole entry, the tested form may be a part)": "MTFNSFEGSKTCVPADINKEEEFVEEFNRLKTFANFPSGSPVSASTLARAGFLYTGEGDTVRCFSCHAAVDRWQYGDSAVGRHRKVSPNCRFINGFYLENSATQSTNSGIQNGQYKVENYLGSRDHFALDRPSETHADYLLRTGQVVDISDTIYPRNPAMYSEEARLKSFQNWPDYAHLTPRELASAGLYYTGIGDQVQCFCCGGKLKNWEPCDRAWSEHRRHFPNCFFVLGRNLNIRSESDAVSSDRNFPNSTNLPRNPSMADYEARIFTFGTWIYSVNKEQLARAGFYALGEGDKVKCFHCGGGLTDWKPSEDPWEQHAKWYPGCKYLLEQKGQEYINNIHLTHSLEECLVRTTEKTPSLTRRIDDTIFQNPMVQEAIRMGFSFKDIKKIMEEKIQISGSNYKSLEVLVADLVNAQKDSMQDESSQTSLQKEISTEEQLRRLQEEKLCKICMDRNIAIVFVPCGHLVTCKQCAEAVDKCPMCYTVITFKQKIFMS", "test": "SAR analysis of Antagonists of XIAP-Bir3 domain of IAP-family anti-apoptotic proteins. [Related pubchem assays (depositor defined):AID1018, AID1449, AID1513, AID1514, AID1638]"}, "[10]": {"target": "T3, E3 ubiquitin-protein ligase XIAP", "test": "SAR analysis of Antagonists of IAP-family anti-apoptotic proteins. [Related pubchem assays (depositor defined):AID1018, AID1449, AID1513, AID1514, AID1638]"}, "[11]": {"target": "Sphingosine 1-phosphate receptor 5 (Homo sapiens, UniProt Q9H228)", "sequence (Q9H228 whole entry)": "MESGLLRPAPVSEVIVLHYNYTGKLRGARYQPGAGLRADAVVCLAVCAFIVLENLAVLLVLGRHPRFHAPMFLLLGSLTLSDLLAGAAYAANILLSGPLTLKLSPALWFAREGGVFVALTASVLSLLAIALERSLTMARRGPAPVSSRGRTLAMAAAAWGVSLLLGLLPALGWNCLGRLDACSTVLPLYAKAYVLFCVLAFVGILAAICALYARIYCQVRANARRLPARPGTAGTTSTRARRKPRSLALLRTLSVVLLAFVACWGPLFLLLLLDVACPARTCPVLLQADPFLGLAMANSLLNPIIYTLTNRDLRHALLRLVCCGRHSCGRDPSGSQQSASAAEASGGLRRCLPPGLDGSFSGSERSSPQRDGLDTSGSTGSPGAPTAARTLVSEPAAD", "test": "(§1) Late-stage fluorescence-based dose-response cell-based assay to identify agonists of the Sphingosine 1-Phosphate Receptor 4 (S1P4): Sphingosine 1-Phosphate Receptor 5 (S1P5) counterscreen assay. [Related pubchem assays (depositor defined):AID1509, AID1523, AID1563, AID1686, AID1701, AID1801, AID463107, AID463225, AID504400]", "format": "functional"}, "[12]": {"target": "Sphingosine 1-phosphate receptor 1 (Homo sapiens, UniProt P21453)", "sequence (P21453 whole entry)": "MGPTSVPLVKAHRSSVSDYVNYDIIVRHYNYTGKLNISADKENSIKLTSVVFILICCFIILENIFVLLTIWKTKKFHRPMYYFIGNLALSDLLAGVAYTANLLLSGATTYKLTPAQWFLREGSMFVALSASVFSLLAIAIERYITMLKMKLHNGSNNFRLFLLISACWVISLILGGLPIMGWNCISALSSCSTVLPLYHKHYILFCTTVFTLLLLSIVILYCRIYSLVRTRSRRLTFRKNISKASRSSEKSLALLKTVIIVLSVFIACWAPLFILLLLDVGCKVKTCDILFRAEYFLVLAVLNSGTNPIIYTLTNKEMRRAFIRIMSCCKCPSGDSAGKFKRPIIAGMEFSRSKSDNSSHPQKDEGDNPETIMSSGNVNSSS", "test": "as §1, with “1 (S1P1)” for “5 (S1P5)”", "format": "functional"}, "[13]": {"target": "Sphingosine 1-phosphate receptor 2 (Homo sapiens, UniProt O95136)", "sequence (O95136 whole entry)": "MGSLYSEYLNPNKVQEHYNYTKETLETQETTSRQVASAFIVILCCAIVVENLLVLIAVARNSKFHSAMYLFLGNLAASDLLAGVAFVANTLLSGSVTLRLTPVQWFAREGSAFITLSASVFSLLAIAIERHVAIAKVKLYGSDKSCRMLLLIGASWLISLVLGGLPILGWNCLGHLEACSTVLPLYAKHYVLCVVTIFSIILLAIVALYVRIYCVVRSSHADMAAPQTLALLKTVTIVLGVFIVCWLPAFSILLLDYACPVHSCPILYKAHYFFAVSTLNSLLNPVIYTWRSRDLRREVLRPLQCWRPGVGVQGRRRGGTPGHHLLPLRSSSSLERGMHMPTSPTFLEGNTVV", "test": "as §1, with “2 (S1P2)” for “5 (S1P5)”", "format": "functional"}, "[14]": {"target": "Sphingosine 1-phosphate receptor 3 (Homo sapiens, UniProt Q99500)", "sequence (Q99500 whole entry)": "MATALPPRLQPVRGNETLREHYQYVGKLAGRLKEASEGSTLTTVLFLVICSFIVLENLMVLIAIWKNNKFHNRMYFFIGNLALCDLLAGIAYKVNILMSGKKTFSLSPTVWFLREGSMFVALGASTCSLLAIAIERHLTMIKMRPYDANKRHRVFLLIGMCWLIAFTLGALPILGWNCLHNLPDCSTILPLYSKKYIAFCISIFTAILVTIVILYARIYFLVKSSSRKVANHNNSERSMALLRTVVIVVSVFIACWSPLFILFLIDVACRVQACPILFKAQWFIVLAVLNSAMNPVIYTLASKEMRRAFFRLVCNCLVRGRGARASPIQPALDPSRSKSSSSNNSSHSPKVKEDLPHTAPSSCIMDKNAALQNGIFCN", "test": "as §1, with “3 (S1P3)” for “5 (S1P5)”", "format": "functional"}, "[15]": {"target": "T4, Kappa-type opioid receptor (Homo sapiens, UniProt P41145)", "T4 sequence (P41145 whole entry)": "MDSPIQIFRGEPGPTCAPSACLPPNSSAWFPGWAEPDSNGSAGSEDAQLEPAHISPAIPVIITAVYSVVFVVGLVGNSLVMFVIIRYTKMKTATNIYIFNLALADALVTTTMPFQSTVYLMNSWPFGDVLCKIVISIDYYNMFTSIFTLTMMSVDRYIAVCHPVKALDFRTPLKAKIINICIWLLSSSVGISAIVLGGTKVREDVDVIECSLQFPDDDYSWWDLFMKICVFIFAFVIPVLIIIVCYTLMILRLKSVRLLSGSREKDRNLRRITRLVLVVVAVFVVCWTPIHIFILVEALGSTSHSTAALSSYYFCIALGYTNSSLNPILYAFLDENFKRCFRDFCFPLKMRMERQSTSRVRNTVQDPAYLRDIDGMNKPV", "test": "SAR analysis of small molecule antagonists of the kappa opioid receptor via a luminescent beta-arrestin assay - Set 5. [Related pubchem assays (depositor defined):AID1778, AID1785]", "format": "functional"}, "[16]": {"target": "T4, Kappa-type opioid receptor", "test": "SAR analysis of small molecule antagonists of the kappa opioid receptor via a luminescent beta-arrestin assay - Set 4. [Related pubchem assays (depositor defined):AID1777, AID1778, AID1785, AID1786, AID1966, AID2133, AID2136, AID2285]", "format": "functional"}, "[17]": {"target": "T5, Delta-type opioid receptor (Homo sapiens, UniProt P41143)", "T5 sequence (P41143 whole entry)": "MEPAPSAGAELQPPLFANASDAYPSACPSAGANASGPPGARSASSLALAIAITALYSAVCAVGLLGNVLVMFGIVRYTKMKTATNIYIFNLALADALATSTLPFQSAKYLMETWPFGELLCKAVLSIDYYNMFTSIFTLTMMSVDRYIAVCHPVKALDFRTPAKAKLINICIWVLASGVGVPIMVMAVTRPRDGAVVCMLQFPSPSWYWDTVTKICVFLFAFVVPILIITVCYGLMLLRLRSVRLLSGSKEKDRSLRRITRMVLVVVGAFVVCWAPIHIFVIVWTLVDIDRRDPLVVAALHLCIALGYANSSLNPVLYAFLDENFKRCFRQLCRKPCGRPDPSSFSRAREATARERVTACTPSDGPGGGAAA", "test": "HTS Image-Based Screen for Agonists of the DOR Receptor. [Related pubchem assays (depositor defined):AID1777, AID1786, AID2133]", "format": "functional"}, "[18]": {"target": "T4, Kappa-type opioid receptor", "format": "functional"}, "[19]": {"target": "T6, Short transient receptor potential channel 4 (Mus musculus, UniProt Q9QUQ5)", "T6 sequence (Q9QUQ5 whole entry)": "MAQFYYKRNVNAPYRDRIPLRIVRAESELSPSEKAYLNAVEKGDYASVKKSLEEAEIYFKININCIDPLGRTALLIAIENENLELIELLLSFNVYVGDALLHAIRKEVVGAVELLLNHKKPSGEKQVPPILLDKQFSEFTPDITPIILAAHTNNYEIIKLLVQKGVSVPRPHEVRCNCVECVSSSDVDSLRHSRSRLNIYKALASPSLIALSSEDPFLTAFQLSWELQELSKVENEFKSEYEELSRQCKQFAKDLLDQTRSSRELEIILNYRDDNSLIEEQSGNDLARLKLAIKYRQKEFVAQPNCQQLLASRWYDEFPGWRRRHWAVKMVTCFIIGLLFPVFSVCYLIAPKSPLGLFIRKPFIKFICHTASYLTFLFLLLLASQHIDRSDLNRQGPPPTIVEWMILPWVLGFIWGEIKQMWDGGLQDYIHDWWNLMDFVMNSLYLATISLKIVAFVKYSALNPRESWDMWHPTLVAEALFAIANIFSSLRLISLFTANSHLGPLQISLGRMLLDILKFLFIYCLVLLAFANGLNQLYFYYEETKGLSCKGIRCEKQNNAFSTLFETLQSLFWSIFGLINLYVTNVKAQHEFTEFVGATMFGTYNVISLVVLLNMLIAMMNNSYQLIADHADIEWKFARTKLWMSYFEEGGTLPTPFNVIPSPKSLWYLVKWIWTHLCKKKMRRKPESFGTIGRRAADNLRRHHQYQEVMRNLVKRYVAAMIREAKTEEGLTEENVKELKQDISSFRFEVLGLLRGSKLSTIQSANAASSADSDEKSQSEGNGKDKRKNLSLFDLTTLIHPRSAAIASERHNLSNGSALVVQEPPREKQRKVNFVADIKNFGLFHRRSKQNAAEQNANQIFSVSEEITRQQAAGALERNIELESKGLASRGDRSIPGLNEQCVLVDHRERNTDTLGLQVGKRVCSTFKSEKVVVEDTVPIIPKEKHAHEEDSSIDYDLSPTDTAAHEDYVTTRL", "test": "block of DAMGO-driven TRPC4 calcium entry – cell-based, HEK293 TRPC4/mu-opioid, Fluo-4 calcium, dose response (AID 434942)", "format": "functional"}, "[20]": {"target": "T5, Delta-type opioid receptor", "test": "HTS Image-Based Screen for Antagonists of the DOR Receptor. [Related pubchem assays (depositor defined):AID1777, AID1785, AID1786, AID2133]", "format": "functional"}, "[21]": {"target": "Mu-type opioid receptor (Homo sapiens, UniProt P35372)", "sequence (P35372 whole entry)": "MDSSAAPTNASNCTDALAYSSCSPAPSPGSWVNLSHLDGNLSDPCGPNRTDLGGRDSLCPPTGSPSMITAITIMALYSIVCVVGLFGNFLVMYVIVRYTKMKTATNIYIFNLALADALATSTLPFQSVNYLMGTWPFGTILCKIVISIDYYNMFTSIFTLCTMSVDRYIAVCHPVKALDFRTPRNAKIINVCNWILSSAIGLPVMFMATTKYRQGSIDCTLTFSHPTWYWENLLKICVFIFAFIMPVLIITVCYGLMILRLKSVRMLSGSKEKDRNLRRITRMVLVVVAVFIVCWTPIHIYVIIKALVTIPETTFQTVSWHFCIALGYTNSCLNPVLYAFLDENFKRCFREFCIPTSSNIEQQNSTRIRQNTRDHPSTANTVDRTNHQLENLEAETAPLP", "test": "HTS Image-Based Screen for Agonists of the MOR Receptor. [Related pubchem assays (depositor defined):AID1777, AID1785, AID1786, AID2133]", "format": "functional"}, "[22]": {"target": "T4, Kappa-type opioid receptor", "format": "functional", "remark": "listed apart in the source"}}, "note": "Calls of active or inactive are those of the source. Unless noted, the rule behind the calls is not given here.", "data": [{"compound": "N#C/C(=C/c1ccc(OCc2cccc(C(=O)O)c2)c(Cl)c1)c1cccc(F)c1", "values": [{"measurement": "IC50", "setting": "[1]", "result": "99.1 µM (active)"}, {"measurement": "IC50", "setting": "[2]", "result": "> 100 µM (inactive)"}, {"measurement": "IC50", "setting": "[3]", "result": "> 100 µM (inactive)"}, {"measurement": "IC50", "setting": "[4]", "result": "> 100 µM (inactive)"}, {"measurement": "IC50", "setting": "[5]", "result": "17 µM (active)"}, {"measurement": "IC50", "setting": "[6]", "result": "> 100 µM (inactive)"}, {"measurement": "IC50", "setting": "[7]", "result": "> 100 µM (inactive)"}, {"measurement": "IC50", "setting": "[8]", "result": "4.78 µM (active)"}]}, {"compound": "CN[C@@H](C)C(=O)NC1CCCN([C@@H](C)C(=O)Nc2ccc3ccccc3c2)C1=O", "note": "(some centres not stated)", "values": [{"measurement": "IC50", "setting": "[9]", "result": "> 100 µM (inactive)"}, {"measurement": "IC50", "setting": "[10]", "result": "> 100 µM (inactive)"}]}, {"compound": "FCc1ccc(OCCOc2ccc(Cl)cc2Cl)c(Cl)n1", "values": [{"measurement": "EC50", "setting": "[11]", "result": "> 50 µM (inactive)"}, {"measurement": "EC50", "setting": "[12]", "result": "> 50 µM (inactive)"}, {"measurement": "EC50", "setting": "[13]", "result": "> 50 µM (inactive)"}, {"measurement": "EC50", "setting": "[14]", "result": "> 50 µM (inactive)"}]}, {"compound": "Cc1ccc(N2CCN(CCCNC(=O)Cn3c(=O)c4cccn4c4cc(Br)cnc43)CC2)cc1", "values": [{"measurement": "IC50", "setting": "[15]", "result": "3.86 µM (active)"}, {"measurement": "IC50", "setting": "[16]", "result": "9.68 µM (active)"}]}, {"compound": "Cc1cccc(-n2ccnc2CN2CCC(CO)(Cc3ccccc3)CC2)c1", "values": [{"measurement": "EC50", "setting": "[17]", "result": "> 32 µM (inactive)"}, {"measurement": "EC50", "setting": "[18]", "result": 4.15, "unit": "µM"}, {"measurement": "EC50", "setting": "[19]", "result": "1.68 µM (active)"}, {"measurement": "IC50", "setting": "[20]", "result": "> 32 µM (inactive)"}, {"measurement": "EC50", "setting": "[21]", "result": "> 32 µM (inactive)"}, {"measurement": "EC50", "setting": "[22]", "result": 5.69, "unit": "µM"}]}]}
